Assays:
[1] = system: islets of Langerhans in the pancreas of the transgenic mouse; experiment: Histological analysis of transgenic mouse pancreas after diphtheria toxin; format: in vivo
[2] = system: non-Tg mouse; experiment: Blood insulin level after DT in non-Tg mouse; format: in vivo
Source text: (§1) Moreover, the blood insulin level of an SCID-Ins-TRECK-Tg mouse was compared with that of a non-Tg mouse. When DT had not yet been administered, there had been no difference between them. […] However, the SCID-Ins-TRECK-Tg mouse was not able to secrete insulin, and thus the blood insulin level thereof was not changed (FIG. 5B) in it.

[3] = system: mouse; conditions: dosage of 50 μg/kg
[4] = system: mouse cells; conditions: toxin added from outside of the cells; cited from earlier work
[5] = system: SCID-Ins-TRECK-Tg mice; experiment: Blood glucose level after intraperitoneal diphtheria toxin in transgenic mice; format: in vivo, mouse
[6] = system: SCID-Ins-TRECK-Tg mouse; experiment: Blood insulin level after DT in transgenic mouse; format: in vivo
Source text: as §1

[7] = system: non-transgenic mouse born of the same mother; experiment: Blood glucose level after diphtheria toxin in non-transgenic littermate; format: in vivo
[8] = target: human HB-EGF (L148S/P149T) (human) (UniProt Q99075); experiment: cell-based or functional assay
[9] = system: SCID-Ins-TRECK-Tg mice; experiment: Decrease in blood glucose level by administration of insulin to DT-induced hyperglycemic mice; format: in vivo, mouse
[10] = 7 days after 5 μg/kg diphtheria toxin, immunostaining
[11] = 5th day after administration of DT
[12] = after DT, 10 minutes after 2 g/kg oral glucose
[13] = diphtheria toxin 50 ng/kg to 50 μg/kg intraperitoneal, within two days

UniProt Q99075, sequence (Q99075 63-148 L148S): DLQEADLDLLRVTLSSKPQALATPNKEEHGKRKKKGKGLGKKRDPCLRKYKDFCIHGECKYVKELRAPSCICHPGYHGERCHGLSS

diphtheria toxin
insulin positive cells (β cells) in islets of Langerhans [1, 10]: significantly decreased
number of α cells stained with anti-glucagon antibodies [1, 10]: increased
cells in the islets of Langerhans (HE staining) ([1]; 7 days after 40 μg/kg diphtheria toxin): damaged
blood insulin level [2, 11]: not changed
blood insulin level after glucose load [2, 12]: rapidly increased
abnormality after administration [3]: no abnormality is observed
resistance of mouse cells to diphtheria toxin relative to human cells [4]: ≥ 1,000 times
time for which high blood glucose level was maintained ([5]; diphtheria toxin 50 ng/kg to 20 μg/kg intraperitoneal): ≥ 50 days
blood glucose level from four days after administration ([5]; diphtheria toxin 50 ng/kg to 20 μg/kg intraperitoneal, from four days after administration): ≥ 400 mg/dL
blood glucose level two days after administration ([5]; diphtheria toxin 50 ng/kg to 20 μg/kg intraperitoneal, two days after administration): ≥ 200 mg/dL
blood glucose level within two days after administration [5, 13]: ≥ 200 mg/dL
glucose and ketone bodies in urine [5, 13]: detection of glucose and ketone bodies in urine
duration of hyperglycemic state ([5]; single DT administration, 5 ng/kg to 50 μg/kg intraperitoneal): ≥ 2 months
minimum DT amount necessary for inducing hyperglycemia ([5]; single intraperitoneal administration): 50 ng/kg
blood insulin level [6, 11]: significantly decreased
blood insulin level after glucose load [6, 12]: not changed
changes in blood glucose levels due to administration of the toxin [7]: no changes

diphtheria toxin (from UniProt P00588 33-567)
minimum DT amount necessary for inducing hyperglycemia [8]: 50 ng/kg

NovoRapid injection: rapid-acting insulin analogue (NovoRapid injection; NovoNordisk Pharma)
blood glucose level after insulin ([9]; 1 U intraperitoneal, severe hyperglycemia (blood glucose >600 mg/dl)): decreased to a normal level
blood glucose level after insulin ([9]; 100 mU insulin, mouse at 500 mg/dl or higher after 1 μg/kg DT (FIG. 5A)): rapidly decreased to a normal value
blood glucose level after insulin ([9]; 100 mU intraperitoneal, 7 days after 1 μg/kg DT, mouse with blood glucose 500 mg/dl (FIG. 5C)): normalized
blood glucose level after insulin ([9]; 100 mU intraperitoneal, severe hyperglycemia (blood glucose >600 mg/dl)): no changes
